Laboratory results from ChEMBL document CHEMBL5120961, “N-Arylimidazoliums as Highly Selective Biomimetic Antimicrobial Agents” (J Med Chem, 2022).

Assays:
[1] = Selectivity ratio of HC5 for hemolytic activity in rabbit erythrocytes to MIC for antibacterial activity against methicillin-resistant Staphylococcus aureus ATCC 43300; format: toxicity, cell-based
Staphylococcus aureus [2] = test: Antibacterial activity against Staphylococcus aureus ATCC 25923 assessed as inhibition of bacterial growth incubated for 16 to 18 hrs by broth microdilution method; format: functional; settings: time 16-18 hrs
Escherichia coli = test: Antibacterial activity against Escherichia coli ATCC 25922 assessed as inhibition of bacterial growth incubated for 16 to 18 hrs by broth microdilution method; format: functional; settings: time 16-18 hrs
Staphylococcus aureus [3] = test: Antibacterial activity against methicillin-resistant Staphylococcus aureus ATCC 43300 assessed as inhibition of bacterial growth incubated for 16 to 18 hrs by broth microdilution method; format: functional; settings: time 16-18 hrs
Erythrocyte = test: Hemolytic activity in rabbit erythrocytes incubated for 1 hr; format: toxicity, cell-based, Oryctolagus cuniculus

SMILES: CCCCCCCC[n+]1ccn(-c2ccc(C#Cc3ccc(-n4cc[n+](CCCCCCCC)c4)cc3)cc2)c1.[Br-].[Br-]
- selectivity ratio [1]: 200
- MIC (Staphylococcus aureus [2]): 1 µg/mL
- MIC (Escherichia coli): 1 µg/mL
- MIC (Staphylococcus aureus [3]): 1 µg/mL
- HC5 (Erythrocyte): 200 µg/mL

SMILES: CCCCCC[n+]1ccn(-c2ccc(CCc3ccc(-n4cc[n+](CCCCCC)c4)cc3)cc2)c1.[Br-].[Br-]
- selectivity ratio [1]: 1000
- MIC (Staphylococcus aureus [2]): 0.5 µg/mL
- MIC (Escherichia coli): 4 µg/mL
- MIC (Staphylococcus aureus [3]): 1 µg/mL
- HC5 (Erythrocyte): 1000 µg/mL

SMILES: CCCCCC[n+]1ccn(-c2ccc(/C=C/c3ccc(-n4cc[n+](CCCCCC)c4)cc3)cc2)c1.[Br-].[Br-]
- selectivity ratio [1]: 600
- MIC (Staphylococcus aureus [2]): 1 µg/mL
- MIC (Escherichia coli): 2 µg/mL
- MIC (Staphylococcus aureus [3]): 1 µg/mL
- HC5 (Erythrocyte): 600 µg/mL
